Read-outs that look alike come from different tables or passages of the source.
Test: Single-dose escalation pharmacokinetics in volunteers
Type: in vivo, human
Settings: human, mean, n = 6; for Ae: excreted in urine; for AUC(0-inf) / Cmax: free base in plasma
Excerpt: Exposure of the free base form of N-[5-(aminosulfonyl)-4-methyl-1,3-thiazol-2-yl]-N-methyl-2-[4-(2-pyridinyl)-phenyl]acetamide to the human body may be measured by high pressure liquid chromatography (HPLC) by looking at different pharmacokinetic parameters in suitable bodily fluids such as for instance blood plasma and urine, the most common parameters being the Cmax, the so-called area under the curve (AUC), and the terminal half-life (t1/2Z). Hereto, the person skilled in the art understands that said parameters are determined by using adequate bioanalytical methods with adequate sensitivity, specificity, ruggedness, stability and repeatability, as for instance a qualified liquid chromatography triple quad mass spectrometry based method coupled with a suitable extraction method for the separation of the analyte from, e.g. the blood plasma.
Therefore, pharmacokinetic studies in human subjects were undertaken following both single and multiple dose administrations of the crystalline mono mesylate monohydrate salt of N-[5-(aminosulfonyl)-4-methyl-1,3-thiazol-2-yl]-N-methyl-2-[4-(2-pyridinyl)phenyl]acetamide, wherein the particle size distribution is preferably defined by d(0.1) from 2 to 100 μm, d(0.5) from 30 to 210 μm and d(0.9) from 70 to 400 μm with a specific surface area of the particles less than 1.0 m^2/g, and more preferably defined by d(0.1) from 10 to 75 μm, d(0.5) from 100 to 175 μm, d(0.9) from 200 to 350 μm with a specific surface area of the particles less than 0.3 m^2/g.
Single oral doses of the crystalline mono mesylate monohydrate salt of N-[5-(aminosulfonyl)-4methyl1,3thiazol-2-yl]-N-methyl-2-[4-(2-pyridinyl)phenyl]acetamide using the formulations in accordance with example a and Table a, were administered to six volunteers per dose step. The overall shape of the plasma concentrations vs. time profiles were similar across all doses applied (see FIG. 4 and FIG. 6).
Table b: Pharmacokinetic parameters after ascending single oral doses of crystalline mono mesylate monohydrate salt of N-[5-(aminosulfonyl)-4-methyl-1,3-thiazol-2-yl]-N-methyl-2-[4-(2-pyridinyl)phenyl]acetamide in the formulations in accordance with table a wherein the particle size distribution is preferably defined by d(0.1) from 2 to 100 μm, d(0.5) from 30 to 210 μm and d(0.9) from 70 to 400 μm with a specific surface area of the particles less than 1.0 m^2/g, and more preferably defined by d(0.1) from 10 to 75 μm, d(0.5) from 100 to 175 μm, d(0.9) from 200 to 350 μm with a specific surface area of the particles less than 0.3 m^2/g.
AUC0-∞: Area under the analyte vs. time concentration from time of administration up to infinity, calculated as
wherein AUC0-last is defined as the area under the analyte vs. time concentration up to time of the last qualifiable concentration, calculated by linear up/log down summation and Clast is defined as last quantifiable observed analyte concentration. λz is the apparent terminal elimination rate constant, determined by linear regression of terminal points of In-linear analyte concentration-time curve.
Cmax is the maximal observed analyte concentration and tmax is the time to reach Cmax;
t1/2z is defined as the apparent terminal elimination half-life, calculated as
MRT: Mean Residence Time; calculated AUMC divided by AUC, wherein AUMC is the area under the first moment of the concentration-time curve from zero up to ∞ with extrapolation of the terminal phase and AUC is the area under the concentration-time curve from zero up to ∞ with extrapolation of the terminal phase.
CL/F refers to the clearance after oral administration of a drug and Ae refers to the amount of drug excreted in the urine.

[1] = single oral dose 5 mg free base equivalent
[2] = single oral dose 10 mg free base equivalent
[3] = single oral dose 20 mg free base equivalent
[4] = single oral dose 40 mg free base equivalent
[5] = single oral dose 80 mg free base equivalent, females
[6] = single oral dose 80 mg free base equivalent, males
[7] = single oral dose 160 mg free base equivalent
[8] = single oral dose 240 mg free base equivalent
[9] = single oral dose 320 mg free base equivalent
[10] = single oral dose 400 mg free base equivalent
[11] = single oral dose 480 mg free base equivalent
[12] = single oral dose 600 mg free base equivalent

CL/F [1]: 0.89 L/h
t1/2z [1]: 80 h
AUC(0-inf) [1]: 5.8 µg·h/mL
Cmax (single oral dose 5 mg free base equivalent, read-out: Cmax): 74 ng/mL
CL/F [2]: 0.87 L/h
t1/2z [2]: 85 h
AUC(0-inf) [2]: 11.7 µg·h/mL
Cmax (single oral dose 10 mg free base equivalent, read-out: Cmax): 170 ng/mL
CL/F [3]: 1.10 L/h
t1/2z [3]: 76 h
AUC(0-inf) [3]: 18.5 µg·h/mL
Cmax (single oral dose 20 mg free base equivalent, read-out: Cmax): 234 ng/mL
CL/F [4]: 1.00 L/h
t1/2z [4]: 72 h
AUC(0-inf) [4]: 40.7 µg·h/mL
Cmax (single oral dose 40 mg free base equivalent, read-out: Cmax): 608 ng/mL
CL/F [5]: 0.85 L/h
t1/2z [5]: 58 h
CL/F [6]: 0.94 L/h
t1/2z [6]: 74 h
CL/F [7]: 1.28 L/h
t1/2z [7]: 63 h
AUC(0-inf) [7]: 131 µg·h/mL
Cmax [7]: 2613 ng/mL
CL/F [8]: 1.15 L/h
t1/2z [8]: 64 h
AUC(0-inf) [8]: 217 µg·h/mL
Cmax [8]: 3600 ng/mL
CL/F [9]: 1.47 L/h
t1/2z [9]: 57 h
AUC(0-inf) [9]: 241 µg·h/mL
Cmax [9]: 4648 ng/mL
CL/F [10]: 1.31 L/h
t1/2z [10]: 57 h
AUC(0-inf) [10]: 320 µg·h/mL
Cmax [10]: 6926 ng/mL
CL/F [11]: 1.33 L/h
t1/2z [11]: 53 h
AUC(0-inf) [11]: 387 µg·h/mL
Cmax [11]: 6921 ng/mL
CL/F [12]: 2.00 L/h
t1/2z [12]: 52 h
AUC(0-inf) [12]: 321 µg·h/mL
Cmax (single oral dose 600 mg free base equivalent, read-out: Cmax): 6440 ng/mL
Structure (SMILES): CS(=O)(=O)O.Cc1nc(N(C)C(=O)Cc2ccc(-c3ccccn3)cc2)sc1S(N)(=O)=O [mono mesylate monohydrate salt, N-[5-(aminosulfonyl)-4-methyl-1,3-thiazol-2-yl]-N-methyl-2-[4-(2-pyridinyl)-phenyl]acetamide mono methanesulfonic acid monohydrate]
Ae [1]: 0 % of dose
Ae [2]: 0 % of dose
Ae [3]: 0 % of dose
Ae [4]: 0 % of dose
Ae [5]: 0.31 % of dose
Ae [6]: 0.16 % of dose
Ae [7]: 0.15 % of dose
Ae [8]: 0.21 % of dose
Ae [9]: 0.16 % of dose
Ae [10]: 0.15 % of dose
Ae [11]: 0.26 % of dose
Ae [12]: 0.09 % of dose

Source: US20150374676A1, “HELICASE-PRIMASE INHIBITORS FOR USE IN A METHOD OF TREATING ALZHEIMER'S DISEASE” (AICURIS GMBH & CO. KG, priority 2013, published 2015)
